# Data published in ChEMBL document CHEMBL4020772, “Alkaloids from aerial parts of Houttuynia cordata and their anti-inflammatory activity” (Bioorg Med Chem Lett, 2017).
# Tested on: RAW264.7
# Test: Antiinflammatory activity in mouse RAW264.7 cells assessed as reduction in LPS-induced NO production pretreated for 30 mins followed by LPS stimulation for 24 hrs by Griess assay
# Type: functional, cell-based
row,SMILES,IC50
1,COc1cc2c(cc1O)CC1c3c(cc(OC)c(O)c3-2)CCN1C (configuration not stated),> 10 µM
2,COc1cc2c(cc1O)CC1c3c(cc(OC)c(OC)c3-2)CCN1C (configuration not stated),> 10 µM
3,COc1cc(CC2c3cc(O)c(OC)cc3CCN2C)ccc1O (configuration not stated),> 10 µM
4,COc1cc2c(cc1O)CC1NCCc3cc(OC)c(O)c-2c31 (configuration not stated),> 10 µM
5,COc1cc2c(cc1O)CC1NCCc3cc(OC)c(OC)c-2c31 (configuration not stated),> 10 µM
6,COc1c(O)cc2c3c1-c1ccccc1CC3N(C)CC2 (configuration not stated),> 10 µM
7,C[C@@H]1C[C@H]2[C@@H]3CCC4=CC(=O)C=C[C@]4(C)[C@@]3(F)[C@@H](O)C[C@]2(C)[C@@]1(O)C(=O)CO [DEXAMETHASONE],7 µM
8,COc1cc2c3c(c1OC)-c1ccccc1CC3NCC2 (configuration not stated) [NORNUCIFERINE],> 10 µM
9,COc1c(O)cc2c3c1-c1ccccc1CC3NCC2 (configuration not stated),> 10 µM
10,NC(=O)c1cccnc1 [NIACINAMIDE],> 10 µM

# Other lines, results leading:
row,IC50,SMILES
1,> 10 µM,O=C(NC[C@@H](O[C@@H]1O[C@H](CO)[C@@H](O)[C@H](O)[C@H]1O)c1ccccc1)c1ccccc1
2,> 10 µM,O[C@]12CO[C@@H](Cc3nccc4c3[nH]c3ccccc34)[C@H]1O2
3,> 10 µM,O=C(NC[C@@H](O[C@@H]1O[C@H](CO)[C@@H](O)[C@H](O)[C@H]1O)c1ccccc1)c1cccc(O)c1
4,> 10 µM,C[S+]([O-])C[C@H]1O[C@@H](n2cnc3c(N)ncnc32)[C@H](O)[C@@H]1O (some centres not stated)
5,> 10 µM,O=C(NC[C@@H](O)c1ccccc1)c1ccc(O)cc1
6,> 10 µM,O=c1ccn([C@@H]2O[C@H](CO)[C@@H](O)[C@H]2O)c(=O)[nH]1 [URIDINE]
7,8.7 µM,OCc1ccc(-c2nccc3c2[nH]c2ccccc23)o1 [PERLOLYRIN]
8,> 10 µM,O=C(O)c1c[nH]c2ccccc12
9,> 10 µM,COc1c(O)cc2c3c(cc4ccccc4c13)NC(=O)C2=O [NORARISTOLODIONE]
10,> 10 µM,Nc1ncnc2c1ncn2[C@@H]1O[C@H](CO)[C@@H](O)[C@H]1O [ADENOSINE]
11,> 10 µM,O=c1ccc2ccccc2[nH]1
12,> 10 µM,COCc1ccc(C=O)n1CCCC(=O)O
